# Legend:
# [1] = tested on: monoclonal anti-hcTnT antibody M11.7; assay: ITEM-FOUR nano-ESI mass spectrometry: in-solution immune complex formation and gas-phase dissociation of M11.7 antibody–epitope peptide complexes; format: binding; conditions: for dx (V): Boltzmann curve parameter; for dx (V) / ΔCV50 (V) / Slope (%/V) / Δ (% pts) / in-solution immune complex formation with M11.7 (binding in words): peptide:antibody 13:1; for dx (V) / ΔCV50 (V) / Final (%) / Initial (%) / Slope (%/V): averaged from two acquisitions; for Binding Type: class by difference of normalized product ion intensities over ΔCV; for ΔCV50 (V): collision cell voltage difference for 50% dissociation, Boltzmann fit; for Final (%): normalized product ion quantity at highest applied ΔCV, peptide:antibody 13:1, 200 mM ammonium acetate pH 6.7; for Initial (%): normalized product ion quantity at lowest applied ΔCV, peptide:antibody 13:1, 200 mM ammonium acetate pH 6.7, at least 1 h RT, nano-ESI, ΔCV 0-58 V; for Slope (%/V): slope of Boltzmann curve; for Δ (% pts): difference Final minus Initial normalized product ion intensity; for in-solution immune complex formation with M11.7 (binding in words): nano-ESI-MS, 200 mM ammonium acetate pH 6.7; for KD m0g# [Ø]: apparent gas-phase dissociation constant, dimensionless number, extrapolated to ambient temperature; for ΔGm0g# / Tamb ΔSm0g# / ΔHm0g#: pseudo thermodynamic value of gas-phase complex dissociation; for ΔGm0g#: Ellingham diagram read at Tamb; for Tamb ΔSm0g# / ΔHm0g#: extrapolated to Tamb
# Protocol: (§1) Immune complex-containing solutions of a wild-type epitope peptide and its corresponding antibody, e.g., P11 and M7, were prepared by mixing the two components in 200 mM ammonium acetate buffer (pH 6.7), ensuring a molar excess of the epitope peptide over the antibody to achieve binding saturation. After an incubation period of one hour, the entire mixture (~3 µL) was loaded into a nano-ESI emitter and electrosprayed. The mass spectrometer was configured to transmit only ion signals with m/z values above 3850, effectively eliminating signals from the unbound peptide (Figure 1A).
# (§2) Antibody–peptide mixture solutions were prepared for ITEM FOUR experiments by mixing 5 µL of one antibody working solution with one assigned peptide working solution to generate antibody to peptide molar ratios of 1:2.1 for all solutions that contained the M7 antibody. For mixture solutions containing the M11.7 or the anti-TNFα antibody, 1:13 molar ratios were prepared. Antibodies were incubated together with peptides for at least one hour at room temperature prior to analysis.
# (§3) Data acquisition for ITEM-FOUR experiments was performed as described in [18] with the Synapt G2S mass spectrometer (Waters MS-Technologies, Wilmslow, UK) and with the following instrumental settings: source temperature, 40 °C; capillary voltage, 1.0–1.3 kV; sample cone voltage, 130 V; source offset voltage, 130 V; trap gas flow (argon), 8.0 mL/min; helium gas: 20 bar. All mass spectra were acquired in positive-ion mode applying a mass window of m/z 200–8000. The quadrupole analyzer was used to block transmission of lower-molecular-mass ions: M1 = 5000 with dwell time of 25% and ramp time of 25%; M2 = 5000 with dwell time of 25% and ramp time of 25%; M3 = 5000. ΔCV in the TRAP collision cell was increased stepwise as follows: 0, 2, 6, 10, 14, 18, 22, 26, 30, 34, 40, 46, 52 and 58 V. The ion mobility separation mode was not used. All acquired scans during a given collision cell voltage difference setting were integrated to obtain an averaged spectrum from which ion intensities were extracted for ITEM-FOUR calculations. Data were acquired and processed with MassLynx software version 4.1 (Waters MS-Technologies). For exact time stamps of all measurements, refer to Table S2 in the Supplement (see also the deposited raw data supplement in the PRIDE directory). All mass spectra for each ΔCV setting were smoothed using the Savitzky-Golay method. Spectra of antibody solutions and antibody–peptide mixture solutions were smoothed using 30 cycles with a 15-mass unit window at the high mass end and at the low mass end with 3 cycles and a 2-mass unit window. All measurements were recorded in duplicate. The mass spectrometric raw data have been deposited via the ProteomeXchange Consortium in the PRIDE partner repository with the dataset identifier PXD058812 [70].
# (§4) The Origin Pro 2023b (64-bit, OriginLab Corporation, Northampton, MA, USA) software package with an automation script for processing multiple datasets was used to graphically plot the extracted intensities of the ion signals of all relevant molecular entities (the immune complex with two bound peptides, the immune complex with one bound peptide, free antibodies, and free peptides) against their corresponding charge state for each collision cell voltage difference (ΔCV). Subsequently, Gaussian curve fittings were performed separately for each molecular entity. […] Iterations were performed for R2 values to be at least 0.91. Apices of Gaussian curves provided the intensities and the average m/z values for each molecular species. Intensity values of individual molecular entities (educts and products) were summed and normalized. Normalized intensities of educts and products from duplicate measurements were averaged.
# (§5) The number of atoms from rituximab was used because the amino acid sequences of neither the M7 nor the M11.7 antibody were disclosed. […]
# [2] = tested on: monoclonal anti-hcTnT antibody M7; assay: ITEM-FOUR nano-ESI mass spectrometry: in-solution immune complex formation and gas-phase dissociation of M7 antibody–epitope peptide complexes; format: binding; conditions: for dx (V): Boltzmann curve parameter; for dx (V) / ΔCV50 (V) / Slope (%/V): peptide:antibody 2.1:1; for dx (V) / ΔCV50 (V) / Final (%) / Initial (%) / Slope (%/V): averaged from two acquisitions; for KD m0g# [Ø]: apparent gas-phase dissociation constant, dimensionless number, extrapolated to ambient temperature; for Binding Type: class by difference of normalized product ion intensities over ΔCV; for ΔCV50 (V): collision cell voltage difference for 50% dissociation, Boltzmann fit; for Final (%): normalized product ion quantity at highest applied ΔCV, peptide:antibody 2.1:1, 200 mM ammonium acetate pH 6.7; for Initial (%): normalized product ion quantity at lowest applied ΔCV, peptide:antibody 2.1:1, 200 mM ammonium acetate pH 6.7, at least 1 h RT, nano-ESI, ΔCV 0-58 V; for ΔGm0g# / Tamb ΔSm0g# / ΔHm0g#: pseudo thermodynamic value of gas-phase complex dissociation; for ΔGm0g#: Ellingham diagram read at Tamb; for Tamb ΔSm0g# / ΔHm0g#: extrapolated to Tamb; for Slope (%/V): slope of Boltzmann curve; for in-solution immune complex formation with M7 (binding in words): nano-ESI-MS, 200 mM ammonium acetate pH 6.7, peptide:antibody 2.1:1 (epitope series) or 13:1 (negative controls)
# Protocol: as §1, §2, §3, §4, §5
Sequence,dx (V) [1],Binding Type [1],ΔCV50 (V) [1],Final (%) [1],Initial (%) [1],Slope (%/V) [1],Binding Type [2],Final (%) [2],Initial (%) [2],other results
AEQQCIRNEREKERQ [Peptide P25],6.00 V,"unorthodox (Differences in normalized product ion intensities were less than 15 percentage points, but greater than 5 percentage points)",10.06 V,93.33%,80.75%,0.52 %/V,,,,
AEQQHIRNEREKERQ [Peptide P27],7.60 V,"unorthodox (Differences in normalized product ion intensities were less than 15 percentage points, but greater than 5 percentage points)",14.04 V,93.49%,80.22%,0.44 %/V,,,,
AEQQRIQNEREKERQ [Peptide P29],5.17 V,"unorthodox (Differences in normalized product ion intensities were less than 15 percentage points, but greater than 5 percentage points)",9.96 V,93.92%,84.39%,0.46 %/V,,,,Δ (% pts) [1]: 9.53 % pts
AEQQRIRNEQEKERQ [Peptide P31],,non-binding (The differences in normalized product intensity values were less than 5 percentage points),,93.39%,93.60%,,,,,in-solution immune complex formation with M11.7 (binding in words) [1]: Loss of binding
AEQQRIRNERKKERQ [Peptide P32],7.32 V,orthodox (The differences in normalized product ion intensity values were always greater than 15 percentage points),17.63 V,96.03%,69.09%,0.92 %/V,,,,KD m0g# [Ø] [1]: 1.43 Ø; ΔGm0g# [1]: -0.21 kcal/mol; Tamb ΔSm0g# [1]: 12.24 kcal/mol; ΔHm0g# [1]: 12.03 kcal/mol
AEQQRIRNEWEKERQ [Peptide P30],,non-binding (The differences in normalized product intensity values were less than 5 percentage points),,94.03%,90.48%,,,,,in-solution immune complex formation with M11.7 (binding in words) [1]: Loss of binding
AEQQRIWNEREKERQ [Peptide P28],6.90 V,"unorthodox (Differences in normalized product ion intensities were less than 15 percentage points, but greater than 5 percentage points)",13.80 V,93.90%,86.91%,0.25 %/V,,,,Δ (% pts) [1]: 6.99 % pts
AEQQSIRNEREKERQ [Peptide P26],6.49 V,"unorthodox (Differences in normalized product ion intensities were less than 15 percentage points, but greater than 5 percentage points)",26.67 V,86.48%,80.48%,0.25 %/V,,,,Δ (% pts) [1]: 6.00 % pts
AEQRRIRNEREKERQ [Peptide P24],,non-binding (The differences in normalized product intensity values were less than 5 percentage points),,93.57%,90.25%,,,,,in-solution immune complex formation with M11.7 (binding in words) [1]: Loss of binding
AKQQRIRNEREKERQ [Peptide P23],7.29 V,orthodox (The differences in normalized product ion intensity values were always greater than 15 percentage points),22.47 V,89.77%,67.00%,0.78 %/V,,,,KD m0g# [Ø] [1]: 1.18 Ø; ΔGm0g# [1]: -0.1 kcal/mol; Tamb ΔSm0g# [1]: 9.037 kcal/mol; ΔHm0g# [1]: 8.941 kcal/mol
AQQQRIRNEREKERQ [Peptide P22],7.70 V,"unorthodox (Differences in normalized product ion intensities were less than 15 percentage points, but greater than 5 percentage points)",25.18 V,97.12%,87.08%,0.33 %/V,,,,
LVSLKDRIERCRAER [Peptide P13],,,,,,,orthodox (The differences in normalized product ion intensity values were always greater than 15 percentage points),83.40%,40.36%,dx (V) [2]: 6.55 V; KD m0g# [Ø] [2]: 0.28 Ø; ΔCV50 (V) [2]: 23.30 V; ΔGm0g# [2]: 0.758 kcal/mol; Tamb ΔSm0g# [2]: 12.43 kcal/mol; ΔHm0g# [2]: 13.18 kcal/mol; Slope (%/V) [2]: 1.64 %/V
LVSLKDRIERRGAER [Peptide P15],,,,,,,"unorthodox (Differences in normalized product ion intensities were less than 15 percentage points, but greater than 5 percentage points)",84.98%,70.69%,dx (V) [2]: 6.09 V; ΔCV50 (V) [2]: 24.89 V; Slope (%/V) [2]: 0.59 %/V
LVSLKDRIERRPAER [Peptide P16],,,,,,,orthodox (The differences in normalized product ion intensity values were always greater than 15 percentage points),96.90%,55.34%,dx (V) [2]: 5.05 V; KD m0g# [Ø] [2]: 0.48 Ø; ΔCV50 (V) [2]: 15.83 V; ΔGm0g# [2]: 0.44 kcal/mol; Tamb ΔSm0g# [2]: 20.02 kcal/mol; ΔHm0g# [2]: 20.46 kcal/mol; Slope (%/V) [2]: 2.06 %/V
LVSLKDRIERRQAER [Peptide P17],,,,,,,orthodox (The differences in normalized product ion intensity values were always greater than 15 percentage points),82.69%,56.18%,dx (V) [2]: 6.46 V; KD m0g# [Ø] [2]: 0.62 Ø; ΔCV50 (V) [2]: 24.61 V; ΔGm0g# [2]: 0.272 kcal/mol; Tamb ΔSm0g# [2]: 8.824 kcal/mol; ΔHm0g# [2]: 9.097 kcal/mol; Slope (%/V) [2]: 1.03 %/V
LVSLKDRIERRWAER [Peptide P14],,,,,,,orthodox (The differences in normalized product ion intensity values were always greater than 15 percentage points),93.86%,54.37%,dx (V) [2]: 4.33 V; KD m0g# [Ø] [2]: 0.28 Ø; ΔCV50 (V) [2]: 18.02 V; ΔGm0g# [2]: 0.748 kcal/mol; Tamb ΔSm0g# [2]: 21.26 kcal/mol; ΔHm0g# [2]: 22.01 kcal/mol; Slope (%/V) [2]: 2.28 %/V
LVSLKDRIKRRRAER [Peptide P12],,,,,,,non-binding (The differences in normalized product intensity values were less than 5 percentage points),92.28%,89.38%,in-solution immune complex formation with M7 (binding in words) [2]: no immune complex had formed in solution; in-solution immune complex formation with M7 (binding in words) ([2]; listed as E138K): disrupted binding

# From PMC12112476, “Mass Spectrometric ITEM-FOUR Analysis Reveals Coding Single-Nucleotide Polymorphisms in Human Cardiac Troponin T That Evade Detection by Sandwich ELISAs Which Use Monoclonal Antibodies M7 and M11.7 from the Elecsys Troponin T® Assay” (International Journal of Molecular Sciences, 2025)
